According to ChEMBL document CHEMBL6153150, “Design, Synthesis, and Biological Evaluation of Chiral-Proline Derivatives as Novel HSP90 Inhibitors” (ACS Med Chem Lett, 2025):
pIC50: −log10 of the molar value.

Columns and labels:
Heat shock protein HSP90 = Heat shock protein HSP90 (Homo sapiens, UniProt P07900+P08238); experiment: Binding affinity to Hsp90 (unknown origin) assessed as dissociation constant incubated for 30 mins by fluorescence spectrophotometric analysis; format: protein assay
K562 = experiment: Antiproliferative activity against human K562 cells assessed as cell viability inhibition rate incubated for 72 hr by MTT assay; format: functional, cell-based; details: K562, 72 h
HCT-116 = experiment: Antiproliferative activity against human HCT-116 cells assessed as cell viability inhibition rate incubated for 72 hr by MTT assay; format: functional, cell-based; details: HCT-116, 72 h
A549 = experiment: Antiproliferative activity against human A549 cells assessed as cell viability inhibition rate incubated for 72 hr by MTT assay; format: functional, cell-based; details: A549, 72 h
SK-BR-3 = experiment: Antiproliferative activity against human SK-BR-3 cells assessed as cell viability inhibition rate incubated for 72 hr by MTT assay; format: functional, cell-based; details: SK-BR-3, 72 h
MCF7 = experiment: Antiproliferative activity against human MCF7 cells assessed as cell viability inhibition rate incubated for 72 hr by MTT assay; format: functional, cell-based; details: MCF7, 72 h

## CCNC(=O)[C@H]1C[C@H](c2ccccc2)CN1C(=O)c1cc(C(C)C)c(O)cc1O
Heat shock protein HSP90
  Kd: 1132 nM

## O=C(NCc1ccccn1)[C@H]1C[C@H](c2ccccc2)CN1C(=O)c1cc(C2CC2)c(O)cc1O
Heat shock protein HSP90
  Kd: 57 nM
K562
  pIC50: 6.06
HCT-116
  pIC50: 6.58
A549
  pIC50: 7.17
SK-BR-3
  pIC50: 6.45
MCF7
  pIC50: 7.33

## CC(C)c1cc(C(=O)N2C[C@@H](c3ccccc3)C[C@@H]2C(=O)N(C)C2CCCCC2)c(O)cc1O
Heat shock protein HSP90
  Kd: 1762 nM

## COCCN1CCN(C(=O)[C@H]2C[C@H](c3ccccc3)CN2C(=O)c2cc(C(C)C)c(O)cc2O)CC1
Heat shock protein HSP90
  Kd: 637 nM

## CC(C)NC(=O)[C@H]1C[C@H](c2ccccc2)CN1C(=O)c1cc(C(C)C)c(O)cc1O
Heat shock protein HSP90
  Kd: 1237 nM

## CCOCCCNC(=O)[C@H]1C[C@H](c2ccccc2)CN1C(=O)c1cc(C(C)C)c(O)cc1O
Heat shock protein HSP90
  Kd: 1098 nM
K562
  pIC50: 6.15
HCT-116
  pIC50: 5.95
A549
  pIC50: 6.69
SK-BR-3
  pIC50: 6.03
MCF7
  pIC50: 6.64

## CC(C)c1cc(C(=O)N2C[C@@H](c3ccccc3)C[C@@H]2C(=O)N2CCCC2)c(O)cc1O
Heat shock protein HSP90
  Kd: 2033 nM

## CCOCCNC(=O)[C@H]1C[C@H](c2ccccc2)CN1C(=O)c1cc(C(C)C)c(O)cc1O
Heat shock protein HSP90
  Kd: 124 nM

## CCN(C)C(=O)[C@H]1C[C@H](c2ccccc2)CN1C(=O)c1cc(C(C)C)c(O)cc1O
Heat shock protein HSP90
  Kd: 1873 nM

## CC1CCCN(C(=O)[C@H]2C[C@H](c3ccccc3)CN2C(=O)c2cc(C(C)C)c(O)cc2O)C1 (stereo partly drawn)
Heat shock protein HSP90
  Kd: 2162 nM

## CCCNC(=O)[C@H]1C[C@H](c2ccccc2)CN1C(=O)c1cc(C(C)C)c(O)cc1O
Heat shock protein HSP90
  Kd: 1653 nM

## CC(C)c1cc(C(=O)N2C[C@@H](c3ccccc3)C[C@@H]2C(=O)N2CCN(CC3CC3)CC2)c(O)cc1O
Heat shock protein HSP90
  Kd: 862 nM

## CCOCCCNC(=O)[C@H]1C[C@H](c2ccccc2)CN1C(=O)c1cc(C2CC2)c(O)cc1O
Heat shock protein HSP90
  Kd: 937 nM
K562
  pIC50: 6.30
HCT-116
  pIC50: 6.00
A549
  pIC50: 6.69
SK-BR-3
  pIC50: 6.13
MCF7
  pIC50: 6.74

## CC(C)CCNC(=O)[C@H]1C[C@H](c2ccccc2)CN1C(=O)c1cc(C(C)C)c(O)cc1O
Heat shock protein HSP90
  Kd: 645 nM

## O=C(NCc1ccccc1)[C@H]1C[C@H](c2ccccc2)CN1C(=O)c1cc(C2CC2)c(O)cc1O
Heat shock protein HSP90
  Kd: 67 nM
K562
  pIC50: 6.35
HCT-116
  pIC50: 6.34
A549
  pIC50: 7.38
SK-BR-3
  pIC50: 6.51
MCF7
  pIC50: 7.20

## COCCNC(=O)[C@H]1C[C@H](c2ccccc2)CN1C(=O)c1cc(C(C)C)c(O)cc1O
Heat shock protein HSP90
  Kd: 188 nM

## CCCN1CCN(C(=O)[C@H]2C[C@H](c3ccccc3)CN2C(=O)c2cc(C(C)C)c(O)cc2O)CC1
Heat shock protein HSP90
  Kd: 1033 nM

## Cc1ccc(CNC(=O)[C@H]2C[C@H](c3ccccc3)CN2C(=O)c2cc(C3CC3)c(O)cc2O)cc1
Heat shock protein HSP90
  Kd: 153 nM
K562
  pIC50: 6.25
HCT-116
  pIC50: 6.33
A549
  pIC50: 7.05
SK-BR-3
  pIC50: 6.37
MCF7
  pIC50: 7.05

## COCCN(CCOC)C(=O)[C@H]1C[C@H](c2ccccc2)CN1C(=O)c1cc(C(C)C)c(O)cc1O
Heat shock protein HSP90
  Kd: 783 nM
K562
  pIC50: 6.15
HCT-116
  pIC50: 6.14
A549
  pIC50: 6.52
SK-BR-3
  pIC50: 6.06
MCF7
  pIC50: 6.43

## CCCN(CCC)C(=O)[C@H]1C[C@H](c2ccccc2)CN1C(=O)c1cc(C(C)C)c(O)cc1O
Heat shock protein HSP90
  Kd: 2516 nM

## CC(C)OCCCNC(=O)[C@H]1C[C@H](c2ccccc2)CN1C(=O)c1cc(C(C)C)c(O)cc1O
Heat shock protein HSP90
  Kd: 202 nM

## CC(C)c1cc(C(=O)N2C[C@@H](c3ccccc3)C[C@@H]2C(=O)NCc2ccccc2Cl)c(O)cc1O
Heat shock protein HSP90
  Kd: 351 nM
K562
  pIC50: 6.20
HCT-116
  pIC50: 6.34
A549
  pIC50: 7.14
SK-BR-3
  pIC50: 6.24
MCF7
  pIC50: 6.99

## COCCN(CCOC)C(=O)[C@H]1C[C@H](c2ccccc2)CN1C(=O)c1cc(C2CC2)c(O)cc1O
Heat shock protein HSP90
  Kd: 637 nM
K562
  pIC50: 6.22
HCT-116
  pIC50: 6.10
A549
  pIC50: 6.79
SK-BR-3
  pIC50: 6.12
MCF7
  pIC50: 6.47

## O=C(NCc1ccc(F)cc1F)[C@H]1C[C@H](c2ccccc2)CN1C(=O)c1cc(C2CC2)c(O)cc1O
Heat shock protein HSP90
  Kd: 157 nM
K562
  pIC50: 6.42
HCT-116
  pIC50: 6.57
A549
  pIC50: 7.27
SK-BR-3
  pIC50: 6.59
MCF7
  pIC50: 7.43

## CCN(CC)CCNC(=O)[C@H]1C[C@H](c2ccccc2)CN1C(=O)c1cc(C(C)C)c(O)cc1O
Heat shock protein HSP90
  Kd: 431 nM

## CCCCN(C)C(=O)[C@H]1C[C@H](c2ccccc2)CN1C(=O)c1cc(C(C)C)c(O)cc1O
Heat shock protein HSP90
  Kd: 1637 nM

## CC(C)c1cc(C(=O)N2C[C@@H](c3ccccc3)C[C@@H]2C(=O)NCc2ccc3ccccc3n2)c(O)cc1O
Heat shock protein HSP90
  Kd: 432 nM
K562
  pIC50: 6.27
HCT-116
  pIC50: 6.27
A549
  pIC50: 7.11
SK-BR-3
  pIC50: 6.20
MCF7
  pIC50: 7.06

## CC(C)c1cc(C(=O)N2C[C@@H](c3ccccc3)C[C@@H]2C(=O)N2CCC(OCC3CC3)CC2)c(O)cc1O
Heat shock protein HSP90
  Kd: 1632 nM

## CC(C)c1cc(C(=O)N2C[C@@H](c3ccccc3)C[C@@H]2C(=O)N(C)C2CC2)c(O)cc1O
Heat shock protein HSP90
  Kd: 1871 nM

## CC(C)c1cc(C(=O)N2C[C@@H](c3ccccc3)C[C@@H]2C(=O)NC2CCCC2)c(O)cc1O
Heat shock protein HSP90
  Kd: 876 nM

## CC(C)c1cc(C(=O)N2C[C@@H](c3ccccc3)C[C@@H]2C(=O)NC2CCCCC2)c(O)cc1O
Heat shock protein HSP90
  Kd: 1076 nM

## CCCCCNC(=O)[C@H]1C[C@H](c2ccccc2)CN1C(=O)c1cc(C(C)C)c(O)cc1O
Heat shock protein HSP90
  Kd: 2161 nM

## CC(C)c1cc(C(=O)N2C[C@@H](c3ccccc3)C[C@@H]2C(=O)N2CCC(N3CCCCC3)CC2)c(O)cc1O
Heat shock protein HSP90
  Kd: 983 nM

## CC(C)c1cc(C(=O)N2C[C@@H](c3ccccc3)C[C@@H]2C(=O)N(C)Cc2ccccc2)c(O)cc1O
Heat shock protein HSP90
  Kd: 2331 nM

## O=C(c1ccc(O)cc1)N1Cc2ccccc2C1
Heat shock protein HSP90
  Kd: 4300 nM

## CC(C)c1cc(C(=O)N2C[C@@H](c3ccccc3)C[C@@H]2C(=O)N2CCCCC2)c(O)cc1O
Heat shock protein HSP90
  Kd: 1337 nM

## CC(C)c1cc(C(=O)N2C[C@@H](c3ccccc3)C[C@@H]2C(=O)N2CCCCC2C)c(O)cc1O (stereo partly drawn)
Heat shock protein HSP90
  Kd: 2171 nM

## CCN(C(=O)[C@H]1C[C@H](c2ccccc2)CN1C(=O)c1cc(C(C)C)c(O)cc1O)C(C)C
Heat shock protein HSP90
  Kd: 2479 nM

## CC(C)c1cc(C(=O)N2C[C@@H](c3ccccc3)C[C@@H]2C(=O)N2CCN(C)CC2)c(O)cc1O
Heat shock protein HSP90
  Kd: 2310 nM

## CCCCNC(=O)[C@H]1C[C@H](c2ccccc2)CN1C(=O)c1cc(C(C)C)c(O)cc1O
Heat shock protein HSP90
  Kd: 1873 nM

## CC(C)c1cc(C(=O)N2C[C@@H](c3ccccc3)C[C@@H]2C(=O)NC2CC2)c(O)cc1O
Heat shock protein HSP90
  Kd: 1213 nM

## CC(C)c1cc(C(=O)N2C[C@@H](c3ccccc3)C[C@@H]2C(=O)NCCCn2ccnc2)c(O)cc1O
Heat shock protein HSP90
  Kd: 1376 nM

## CC(C)c1cc(C(=O)N2C[C@@H](c3ccccc3)C[C@@H]2C(=O)NCC2CC2)c(O)cc1O
Heat shock protein HSP90
  Kd: 354 nM

## CC(C)c1cc(C(=O)N2C[C@@H](c3ccccc3)C[C@@H]2C(=O)N2CCN(Cc3ccccc3)CC2)c(O)cc1O
Heat shock protein HSP90
  Kd: 1033 nM

## CC(C)CN(C)C(=O)[C@H]1C[C@H](c2ccccc2)CN1C(=O)c1cc(C(C)C)c(O)cc1O
Heat shock protein HSP90
  Kd: 1573 nM

## CC(C)c1cc(C(=O)N2C[C@@H](c3ccccc3)C[C@@H]2C(=O)N2CCN(C(C)C)CC2)c(O)cc1O
Heat shock protein HSP90
  Kd: 1021 nM

## CC(C)c1cc(C(=O)N2C[C@@H](c3ccccc3)C[C@@H]2C(=O)N2CCN(c3ncccn3)CC2)c(O)cc1O
Heat shock protein HSP90
  Kd: 1631 nM

## CCC1CCCCN1C(=O)[C@H]1C[C@H](c2ccccc2)CN1C(=O)c1cc(C(C)C)c(O)cc1O (stereo partly drawn)
Heat shock protein HSP90
  Kd: 1677 nM
